Source: US8592415B2, “Selective kinase inhibitors” (Reaction Biology Corp., priority 2009, dated 2013)

Experiments:
[1] = tested on: adjuvant-induced arthritis; details: rat; cited from earlier work
[2] = tested on: collagen-induced arthritis; details: rat; cited from earlier work
SZ-4 cells = assay: IL-2 dependent cell proliferation assay (MTT); assay type: cell-based; details: Homo sapiens, 72 hr, IL-2, MTT, read-out: IC50, inhibition of proliferation
From the text: The number of surviving cells is directly proportional to the level of the formazan product created.

JAK2 [3] = assay: In vitro JAK kinase enzymatic assay (JAK2); assay type: biochemical
Method: (§1) The substrate is poly-glutamic acid-tyrosin peptide, Poly-(GT) (4:1) (Sigma-Aldrich, catalog P7244). [γ-^33P]-ATP is purchased from Perkin Elmer (catalog NEG602H001MC) (EasyTides). Kinase reaction buffer is 100 mM HEPES (pH 7.5), 20 mM MgCl2, 2 mM EGTA, 0.02% Brij 35. The JAK1 (Invitrogen Catalog PV4774), JAK2 (Invitrogen Catalog PV4210) and TYK2 Invitrogen Catalog PV4790) enzymatic assays are performed in the similar way. JAK1 and JAK2 substrate is Poly-(GT) (4:1), but TYK2 substrate is peptide with sequences of […]. The reaction is carried for 2 hours at room temperature. […] The unreacted phosphate are washed away without interfering with the detection of real phosphorylated products. The final product can be detected by instruments such as scintillation counter, top counter or phosphoimager. The enzymatic assays can also performed in assays described those described in the art [e.g., Ma H et al, Expert Opin. Drug Discov.
(§2) Signal=Bottom+(Top−Bottom)/(1+10^((Log(IC50)−Log [I])*Hill Slope) Bottom and Top refer to the post and pre-transition baselines, respectively.

JAK2 [4] = target: JAK2 (Homo sapiens, UniProt O60674); assay: In vitro JAK kinase enzymatic assay (JAK2); assay type: biochemical
Chain of JAK2 (Homo sapiens, UniProt O60674) (O60674 whole entry, looked up): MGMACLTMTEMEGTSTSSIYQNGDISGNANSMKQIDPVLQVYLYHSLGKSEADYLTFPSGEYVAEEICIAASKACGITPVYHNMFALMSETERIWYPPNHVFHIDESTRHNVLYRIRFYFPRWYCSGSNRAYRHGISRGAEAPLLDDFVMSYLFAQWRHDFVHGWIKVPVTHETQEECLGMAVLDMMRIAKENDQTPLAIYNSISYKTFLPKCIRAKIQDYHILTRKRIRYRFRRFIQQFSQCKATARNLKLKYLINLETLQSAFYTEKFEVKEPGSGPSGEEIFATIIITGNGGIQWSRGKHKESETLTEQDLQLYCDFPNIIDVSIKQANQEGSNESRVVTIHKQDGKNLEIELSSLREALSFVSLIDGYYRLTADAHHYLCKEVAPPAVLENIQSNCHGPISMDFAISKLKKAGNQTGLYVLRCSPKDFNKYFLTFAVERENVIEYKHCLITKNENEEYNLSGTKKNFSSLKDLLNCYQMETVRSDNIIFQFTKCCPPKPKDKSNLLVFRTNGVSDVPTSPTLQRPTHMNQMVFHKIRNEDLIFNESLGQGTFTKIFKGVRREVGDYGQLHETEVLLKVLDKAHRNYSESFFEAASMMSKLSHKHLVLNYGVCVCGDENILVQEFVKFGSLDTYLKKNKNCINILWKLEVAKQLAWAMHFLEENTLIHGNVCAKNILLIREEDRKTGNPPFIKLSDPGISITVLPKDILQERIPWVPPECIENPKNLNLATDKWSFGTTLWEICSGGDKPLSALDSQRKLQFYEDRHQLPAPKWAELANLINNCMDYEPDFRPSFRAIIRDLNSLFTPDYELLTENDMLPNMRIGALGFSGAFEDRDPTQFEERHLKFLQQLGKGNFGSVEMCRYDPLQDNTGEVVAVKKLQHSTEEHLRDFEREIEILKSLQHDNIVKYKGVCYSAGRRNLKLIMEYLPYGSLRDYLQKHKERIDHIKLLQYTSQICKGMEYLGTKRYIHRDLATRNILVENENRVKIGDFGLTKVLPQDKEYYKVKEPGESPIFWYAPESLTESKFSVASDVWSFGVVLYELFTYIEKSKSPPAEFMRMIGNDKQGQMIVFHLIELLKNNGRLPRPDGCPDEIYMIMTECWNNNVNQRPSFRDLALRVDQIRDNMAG
Method: as §1, §2

JAK3 phosphorylation = JAK3 phosphorylation detection by immunoprecipitation and Western blot; assay type: cell-based, human; details: 0.8 μM compound with IL-2; IL-2 alone more than 12-fold
Method: Cell lines: The SZ-4 cell line is derived from a Sézary patient (Abrams, et al., 1991, J Investig Dermatol. 96, 31-37), and the growth of this cell line is IL-2 dependent. The cells are grown in RPMI 1640 medium supplemented with 10% fetal calf serum, 2 mM L-glutamine, penicillin 100 U/ml, streptomycin 100 ug/ml, and 10 I.U/ml IL-2 in a 5% CO2 humidified incubator at 37° C.
Protein and phosphorylation detection by immunoprecipitation and Western Blot: the above cells is used to evaluate the compounds activities of inhibiting JAK/STAT phosphorylations. After the cells are treated as described above, cells are collected and pelleted by centrifuging, cell pellets are then lysed with PI/RIPA lysis buffer (1% NP40, 1% Deoxycholic Acid, 0.1% SDS, 0.15M NaCl, 10 mM Sodium Phosphate, 1 mM PMSF, 2 mM EDTA, 10 mM NaF, 10 mM Napyrophosphate, 0.4 mM Na3VO4, 10 mM Indoacetamide, PH, 8.0) on ice. The lysed cells are centrifuged at 15,000 rpm to remove cell debris, add 5 ul of Anti-Phosphotyrosine, 4G10® Platinum (Upstate Biotechnology, Lake Placid, N.Y.), and incubate for 90 min on ice. Then, the protein A-Sepharose (Invitrogen, Carlsbad, Calif.) is added to precipitate the immune complexes for 1 hr at 4° C. The immunoprecipitates are washed 3× with lysis buffer, and suspended in loading buffer. […]

JAK1 = JAK1 (Homo sapiens, UniProt P23458); assay: In vitro JAK kinase enzymatic assay (JAK1); assay type: biochemical
Method: (§3) The JAK3 kinase is recombinant human protein (catalytic domain, amino acids 781-1124 with GST-tag), expressed in insect cells (Invitrogen Catalog PV3855). The substrate is poly-glutamic acid-tyrosin peptide, Poly-(GT) (4:1) (Sigma-Aldrich, catalog P7244). [γ-^33P]-ATP is purchased from Perkin Elmer (catalog NEG602H001MC) (EasyTides). Kinase reaction buffer is 100 mM HEPES (pH 7.5), 20 mM MgCl2, 2 mM EGTA, 0.02% Brij 35. The JAK1 (Invitrogen Catalog PV4774), JAK2 (Invitrogen Catalog PV4210) and TYK2 Invitrogen Catalog PV4790) enzymatic assays are performed in the similar way. JAK1 and JAK2 substrate is Poly-(GT) (4:1), but TYK2 substrate is peptide with sequences of […]. The reaction is carried for 2 hours at room temperature. After the reactions are finished or stopped, portion or all the reaction mixtures are transferred onto filter paper P81 Phosphocellulose paper (Whatman catalog 3698-915) for binding the final radioisotope labeled products. The unreacted phosphate are washed away without interfering with the detection of real phosphorylated products. The final product can be detected by instruments such as scintillation counter, top counter or phosphoimager. The enzymatic assays can also performed in assays described those described in the art [e.g., Ma H et al, Expert Opin. Drug Discov. 3, 607-621 (2008); Olive D M, Expert Rev Proteomics, 1, 327-341 (2004)].
as §2

TYK2 = TYK2 (Homo sapiens (Human), UniProt P29597); assay: In vitro JAK kinase enzymatic assay (TYK2); assay type: biochemical
Chain of TYK2 (P29597 whole entry): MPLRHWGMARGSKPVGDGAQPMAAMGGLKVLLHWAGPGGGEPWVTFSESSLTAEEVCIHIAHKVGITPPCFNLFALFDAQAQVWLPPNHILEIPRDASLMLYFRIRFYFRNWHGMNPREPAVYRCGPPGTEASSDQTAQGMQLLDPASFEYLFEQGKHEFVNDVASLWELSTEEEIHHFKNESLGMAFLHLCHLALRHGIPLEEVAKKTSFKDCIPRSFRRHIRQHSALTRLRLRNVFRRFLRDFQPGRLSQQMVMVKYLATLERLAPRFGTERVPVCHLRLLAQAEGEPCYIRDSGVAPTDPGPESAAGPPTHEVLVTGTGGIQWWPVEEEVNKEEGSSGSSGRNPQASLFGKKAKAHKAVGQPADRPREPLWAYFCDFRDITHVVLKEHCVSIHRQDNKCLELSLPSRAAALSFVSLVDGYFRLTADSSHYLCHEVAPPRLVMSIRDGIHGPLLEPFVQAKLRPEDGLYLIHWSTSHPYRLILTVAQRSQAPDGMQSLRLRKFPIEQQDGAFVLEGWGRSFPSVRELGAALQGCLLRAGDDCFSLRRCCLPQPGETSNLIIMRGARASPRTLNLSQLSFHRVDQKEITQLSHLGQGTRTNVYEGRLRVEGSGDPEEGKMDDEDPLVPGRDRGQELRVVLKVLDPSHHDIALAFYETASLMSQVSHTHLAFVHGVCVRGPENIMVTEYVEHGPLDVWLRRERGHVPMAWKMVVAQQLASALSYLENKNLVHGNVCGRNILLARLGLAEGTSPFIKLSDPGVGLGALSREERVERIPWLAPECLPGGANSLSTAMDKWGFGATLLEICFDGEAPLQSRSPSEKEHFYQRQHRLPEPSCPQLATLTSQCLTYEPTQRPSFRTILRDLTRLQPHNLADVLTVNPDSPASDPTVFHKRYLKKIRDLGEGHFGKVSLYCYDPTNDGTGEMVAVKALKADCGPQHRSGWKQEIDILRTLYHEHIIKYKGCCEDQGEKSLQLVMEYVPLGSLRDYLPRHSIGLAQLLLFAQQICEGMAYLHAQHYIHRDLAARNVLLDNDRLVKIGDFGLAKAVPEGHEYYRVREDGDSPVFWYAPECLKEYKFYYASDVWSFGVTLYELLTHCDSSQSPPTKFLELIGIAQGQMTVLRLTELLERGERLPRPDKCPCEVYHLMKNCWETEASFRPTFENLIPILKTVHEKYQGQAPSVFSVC
Method: as §3, §2

JAK3 [5] = target: T1, JAK3 (Homo sapiens (Human), UniProt P52333); assay: In vitro JAK kinase enzymatic assay (JAK3); assay type: biochemical
Method: as §3, §2
Target sequence in this assay (P52333 781-1124): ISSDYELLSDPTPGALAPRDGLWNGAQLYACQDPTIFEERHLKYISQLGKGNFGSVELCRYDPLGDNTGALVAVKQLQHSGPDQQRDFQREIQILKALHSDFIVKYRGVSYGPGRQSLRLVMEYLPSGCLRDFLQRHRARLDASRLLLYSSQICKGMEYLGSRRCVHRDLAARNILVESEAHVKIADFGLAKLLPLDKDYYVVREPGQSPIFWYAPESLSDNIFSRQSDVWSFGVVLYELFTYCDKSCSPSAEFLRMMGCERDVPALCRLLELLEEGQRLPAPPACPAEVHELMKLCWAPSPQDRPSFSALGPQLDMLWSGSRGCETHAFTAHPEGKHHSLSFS

[6] = tested on: autoimmune type I diabetes; details: NOD mouse; cited from earlier work
JAK3 [7] = target: T1, JAK3; details: cited from earlier work
Target sequence in this assay (P52333 whole entry): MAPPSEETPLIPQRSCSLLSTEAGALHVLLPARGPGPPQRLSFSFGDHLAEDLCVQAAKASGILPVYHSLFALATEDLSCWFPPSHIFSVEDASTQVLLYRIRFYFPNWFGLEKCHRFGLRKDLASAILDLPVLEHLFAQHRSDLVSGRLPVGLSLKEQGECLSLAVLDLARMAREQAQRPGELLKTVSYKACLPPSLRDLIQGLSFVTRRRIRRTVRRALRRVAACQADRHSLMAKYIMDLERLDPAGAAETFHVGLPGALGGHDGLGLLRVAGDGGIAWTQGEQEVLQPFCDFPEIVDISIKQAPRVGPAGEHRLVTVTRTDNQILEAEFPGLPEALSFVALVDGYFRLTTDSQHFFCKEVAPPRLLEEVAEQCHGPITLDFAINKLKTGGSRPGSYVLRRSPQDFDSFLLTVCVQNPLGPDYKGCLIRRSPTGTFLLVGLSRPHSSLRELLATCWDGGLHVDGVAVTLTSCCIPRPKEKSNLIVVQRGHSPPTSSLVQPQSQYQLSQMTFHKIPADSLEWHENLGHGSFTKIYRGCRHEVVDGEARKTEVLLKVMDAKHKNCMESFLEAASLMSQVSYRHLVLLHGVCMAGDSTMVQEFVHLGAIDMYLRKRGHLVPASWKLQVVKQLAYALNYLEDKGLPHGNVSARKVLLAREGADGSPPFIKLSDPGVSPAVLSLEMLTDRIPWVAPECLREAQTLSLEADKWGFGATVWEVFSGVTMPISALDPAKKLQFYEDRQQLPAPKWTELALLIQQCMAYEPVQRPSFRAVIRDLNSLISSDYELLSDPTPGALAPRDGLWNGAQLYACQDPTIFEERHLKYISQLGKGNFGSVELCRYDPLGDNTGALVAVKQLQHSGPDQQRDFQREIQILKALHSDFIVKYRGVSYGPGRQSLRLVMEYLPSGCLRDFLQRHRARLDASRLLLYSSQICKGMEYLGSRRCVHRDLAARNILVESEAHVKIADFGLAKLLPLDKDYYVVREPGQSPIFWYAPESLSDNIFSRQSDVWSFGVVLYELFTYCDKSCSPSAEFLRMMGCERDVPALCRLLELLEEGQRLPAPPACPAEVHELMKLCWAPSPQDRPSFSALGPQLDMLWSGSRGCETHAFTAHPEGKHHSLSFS

[8] = tested on: amyotrophic lateral sclerosis (ALS); details: transgenic mouse model of ALS; cited from earlier work
[9] = tested on: myeloid dendritic cells (DCs); details: cited from earlier work

Row | IC50 (JAK2 [3]) [µM] | IC50 (JAK2 [4]) [µM] | IC50 (JAK1) [µM] | IC50 (TYK2) [µM] | IC50 (JAK3 [5]) [µM] | SMILES | other results
1 | – | – | – | – | – | C[C@@H]1CCN(C(=O)CC#N)C[C@@H]1N(C)c1ncnc2[nH]ccc12 [CP-690550] | effect in adjuvant-induced arthritis [1]: therapeutic effects; effect in collagen-induced arthritis [2]: therapeutic effects
2 | > 20 | > 10 | > 20 | > 20 | 0.0002 | O=C(CCl)Nc1cccc(-c2cnc3ccccc3n2)c1 [Example 1, 2-chloro-N-(3-quinoxalin-2-ylphenyl)acetamide] | IC50 (SZ-4 cells): 0.0003 µM; JAK3 phosphorylation level increase above background level (JAK3 phosphorylation): about 2 fold
3 | 18.1 | > 10 | > 20 | > 20 | 0.136 | N#CCC(=O)Nc1cccc(-c2cnc3ccccc3n2)c1 [Example 8, 2-cyano-N-[3-(quinoxalin-2-yl)phenyl]acetamide] | –
4 | > 20 | > 10 | > 20 | > 20 | 0.175 | O=C(CN1CCCCC1)Nc1cccc(-c2cnc3ccccc3n2)c1 [Example 9, 2-(piperidin-1-yl)-N-[3-(quinoxalin-2-yl)phenyl]acetamide] | –
5 | 18 | > 10 | > 20 | > 20 | 0.27 | O=C(CN1CCN(c2ccccc2)CC1)Nc1cccc(-c2cnc3ccccc3n2)c1 [Example 16, 2-(4-phenylpiperazin-1-yl)-N-[3-(quinoxalin-2-yl)phenyl]acetamide] | IC50 (SZ-4 cells): 0.27 µM
6 | – | – | – | – | – | COc1cc2ncnc(Nc3ccc(O)cc3)c2cc1OC [JANEX-1] | onset of diabetes [6]: delayed the onset of diabetes
7 | – | – | – | – | – | COc1cc2ncnc(Nc3ccc(O)cc3)c2cc1OC [WHI-P131] | JAK3 IC50s (JAK3 [7]): low μM ranges; survival [8]: increased survival
8 | – | – | – | – | – | COc1cc2ncnc(Nc3ccc(O)c(Br)c3)c2cc1OC [WHI-P-154] | effect on CD40-induced DC maturation [9]: prevented these effects
